In ChEMBL document CHEMBL2074351, “Characterization of the major metabolites of verapamil as substrates and inhibitors of P-glycoprotein” (J Pharmacol Exp Ther, 2000):
pIC50: −log10 of the molar value.

Key:
[1] = molecular target: T1, ATP-dependent translocase ABCB1 (Homo sapiens, UniProt P08183); experiment: TP_TRANSPORTER: transepithelial transport (basal to apical) in MDR1-expressing LLC-PK1 cells; format: functional, cell-based; details: pig
[2] = molecular target: T1, ATP-dependent translocase ABCB1; experiment: TP_TRANSPORTER: inhibition of Digoxin transepithelial transport (basal to apical) (Digoxin: 5 uM) in Caco-2 cells; format: functional, cell-based

T1 sequence (P08183 whole entry): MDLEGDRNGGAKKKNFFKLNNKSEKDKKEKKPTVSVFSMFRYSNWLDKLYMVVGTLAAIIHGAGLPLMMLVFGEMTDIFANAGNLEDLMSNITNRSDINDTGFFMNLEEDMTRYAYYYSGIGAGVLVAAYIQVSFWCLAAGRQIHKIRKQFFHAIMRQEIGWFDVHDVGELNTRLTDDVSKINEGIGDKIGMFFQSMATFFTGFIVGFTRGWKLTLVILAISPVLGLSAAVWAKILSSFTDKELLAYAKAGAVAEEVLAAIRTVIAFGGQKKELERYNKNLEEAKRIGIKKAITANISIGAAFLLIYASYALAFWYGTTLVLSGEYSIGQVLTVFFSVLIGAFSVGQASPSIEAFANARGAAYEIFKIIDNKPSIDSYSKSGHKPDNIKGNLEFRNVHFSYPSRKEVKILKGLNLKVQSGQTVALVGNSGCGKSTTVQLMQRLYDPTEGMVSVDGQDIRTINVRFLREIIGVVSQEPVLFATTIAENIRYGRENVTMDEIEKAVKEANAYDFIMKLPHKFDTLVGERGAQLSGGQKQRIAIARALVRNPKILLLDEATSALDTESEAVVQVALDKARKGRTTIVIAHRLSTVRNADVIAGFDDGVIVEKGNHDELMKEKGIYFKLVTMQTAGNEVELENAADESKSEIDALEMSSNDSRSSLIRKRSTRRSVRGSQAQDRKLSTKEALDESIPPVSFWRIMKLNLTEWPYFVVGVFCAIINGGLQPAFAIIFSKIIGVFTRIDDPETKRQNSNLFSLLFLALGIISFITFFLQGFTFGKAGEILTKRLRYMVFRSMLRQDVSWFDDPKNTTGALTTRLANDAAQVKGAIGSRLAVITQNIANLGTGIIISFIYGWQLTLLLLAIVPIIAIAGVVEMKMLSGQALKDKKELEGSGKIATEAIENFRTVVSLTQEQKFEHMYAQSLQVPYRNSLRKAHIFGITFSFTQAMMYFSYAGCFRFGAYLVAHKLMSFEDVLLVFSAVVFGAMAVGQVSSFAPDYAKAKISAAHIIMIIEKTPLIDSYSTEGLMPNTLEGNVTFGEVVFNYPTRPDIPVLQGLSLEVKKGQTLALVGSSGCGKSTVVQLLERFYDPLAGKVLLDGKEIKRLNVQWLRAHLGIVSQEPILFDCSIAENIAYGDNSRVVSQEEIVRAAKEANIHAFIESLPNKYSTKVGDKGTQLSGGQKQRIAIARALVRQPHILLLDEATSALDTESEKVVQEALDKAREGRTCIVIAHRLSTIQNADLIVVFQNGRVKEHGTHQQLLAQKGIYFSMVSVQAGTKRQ

Row | Activity [1] | pIC50 [2] | Structure (SMILES)
1 | substrate [+] |  | CNCCCC(C#N)(c1ccc(OC)c(OC)c1)C(C)C (stereo unspecified)
2 | substrate [+] |  | COc1ccc([C@@](C#N)(CCCN)C(C)C)cc1OC
3 |  | 5.80 | COc1ccc([C@@](C#N)(CCCN(C)CCc2ccc(OC)c(OC)c2)C(C)C)cc1O

Further lines, the molecule ahead of its results:

Row | Structure (SMILES) | Activity [1] | pIC50 [2]
4 | COc1ccc(CCNCCCC(C#N)(c2ccc(OC)c(OC)c2)C(C)C)cc1OC (stereo unspecified) [NORVERAPAMIL] | substrate [+] | 6.52
5 | COc1ccc(CCN(C)CCCC(C#N)(c2ccc(OC)c(OC)c2)C(C)C)cc1OC (stereo unspecified) [VERAPAMIL] | substrate [+] | 
